Data from patent publication US20200017495A1, “NOVEL HETEROCYCLIC COMPOUNDS AND THEIR USE IN PREVENTING OR TREATING BACTERIAL INFECTIONS” (priority 2017, published 2020).

Key:
Test in all cases: MIC of compounds alone and combined with antibacterials, broth microdilution (CLSI)
Assay type in all cases: cell-based
[1] = test system: Citrobacter koseri (CKR) isolates
Method in brief: (§1)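 Antibacterial MICs in combination were determined at every compound concentration tested, alongside compound MICs alone. Bacteria grew in cation-adjusted Mueller-Hinton broth starting from 5.10^5 CFU/mL, incubated at 35° C for 16-20 h, and endpoints were the lowest concentrations with no visible growth.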

[2] = test system: Providencia rettgeri (PRE) isolates
Method in brief: as §1

[3] = test system: Serratia marcescens (SMA) isolates
Method in brief: as §1

[4] = test system: Morganella morganii (MMO) isolates
Method in brief: as §1

Question: Which results are given for `CC(C)(O/N=C(\C(=O)N[C@@H]1C(=O)N2C(C(=O)[O-])=C(C[n+]3ccccc3)CS[C@H]12)c1csc(N)n1)C(=O)O` [CAZ, Ceftazidime]?
Answer: MIC ATB in combination ([1]; CKO ROU, AF2 @ 8 μg/mL): 1 µg/mL; MIC ATB in combination ([1]; CKO ROU, AF3 @ 8 μg/mL): 1 µg/mL; MIC ATB in combination ([1]; CKO UFR149, AF2 @ 8 μg/mL): <0.25 µg/mL; MIC ATB in combination ([1]; CKO UFR149, AF3 @ 8 μg/mL): <0.25 µg/mL; MIC ATB in combination ([1]; CKO UFR150, AF2 @ 8 μg/mL): 4 µg/mL; MIC ATB in combination ([1]; CKO UFR150, AF3 @ 8 μg/mL): 4 µg/mL; MIC ([1]; strain CKO ROU, genotype TEM-1, SHV-12, CTX-M-15, OXA-1, OXA-48): 1 µg/mL; MIC ([1]; strain CKO UFR149, genotype OXA-48): >128 µg/mL; MIC ([1]; strain CKO UFR150, genotype TEM-1, OXA-48): 4 µg/mL; MIC ATB in combination ([2]; PRE UFR99, AF2 @ 8 μg/mL): >128 µg/mL; MIC ATB in combination ([2]; PRE UFR99, AF3 @ 8 μg/mL): >128 µg/mL; MIC ATB in combination ([2]; strain PRE UFR96, with AF2 @ 8 μg/mL): <0.25 µg/mL; MIC ATB in combination ([2]; strain PRE UFR96, with AF3 @ 8 μg/mL): <0.25 µg/mL; MIC ATB in combination ([2]; strain PRE UFR97, with AF2 @ 8 μg/mL): >128 µg/mL; MIC ATB in combination ([2]; strain PRE UFR97, with AF3 @ 8 μg/mL): >128 µg/mL; MIC ([2]; strain PRE UFR236, genotype TEM-1, OXA-48): 32 µg/mL; MIC ATB in combination ([2]; strain PRE UFR236, with AF2 @ 8 μg/mL): 0.5 µg/mL; MIC ATB in combination ([2]; strain PRE UFR236, with AF3 @ 8 μg/mL): <=0.25 μg/mL; MIC ATB in combination ([3]; SMA UFR30, AF2 @ 8 μg/mL): 0.5 µg/mL; MIC ATB in combination ([3]; SMA UFR30, AF3 @ 8 μg/mL): <=0.25 μg/mL; MIC ATB in combination ([3]; SMA UFR134, AF2 @ 8 μg/mL): <=0.25 μg/mL; MIC ATB in combination ([3]; SMA UFR134, AF3 @ 8 μg/mL): 0.5 µg/mL; MIC ATB in combination ([3]; SMA UFR135, AF2 @ 8 μg/mL): 2 µg/mL; MIC ATB in combination ([3]; SMA UFR135, AF3 @ 8 μg/mL): 4 µg/mL; MIC ATB in combination ([3]; SMA UFR136, AF2 @ 8 μg/mL): 2 µg/mL; MIC ATB in combination ([3]; SMA UFR136, AF3 @ 8 μg/mL): 1 µg/mL; MIC ATB in combination ([3]; SMA UFR137, AF2 @ 8 μg/mL): <=0.25 μg/mL; MIC ATB in combination ([3]; SMA UFR137, AF3 @ 8 μg/mL): 0.5 µg/mL; MIC ATB in combination ([3]; SMA UFR138, AF2 @ 8 μg/mL): 0.5 µg/mL; MIC ATB in combination ([3]; SMA UFR138, AF3 @ 8 μg/mL): <=0.25 μg/mL; MIC ATB in combination ([3]; SMA UFR139, AF2 @ 8 μg/mL): 1 µg/mL; MIC ATB in combination ([3]; SMA UFR139, AF3 @ 8 μg/mL): <=0.25 μg/mL; MIC ATB in combination ([3]; SMA UFR141, AF2 @ 8 μg/mL): <=0.25 μg/mL; MIC ATB in combination ([3]; SMA UFR141, AF3 @ 8 μg/mL): 0.5 µg/mL; MIC ATB in combination ([3]; SMA UFR142, AF2 @ 8 μg/mL): 0.5 µg/mL; MIC ATB in combination ([3]; SMA UFR142, AF3 @ 8 μg/mL): 0.5 µg/mL; MIC ATB in combination ([3]; SMA UFR143, AF2 @ 8 μg/mL): <=0.25 μg/mL; MIC ATB in combination ([3]; SMA UFR143, AF3 @ 8 μg/mL): <=0.25 μg/mL; MIC ATB in combination ([3]; SMA UFR239, AF2 @ 8 μg/mL): 4 µg/mL; MIC ATB in combination ([3]; SMA UFR239, AF3 @ 8 μg/mL): 0.5 µg/mL; MIC ([3]; strain SMA UFR30, genotype OXA-405): 8 µg/mL; MIC ([3]; strain SMA UFR134, genotype TEM-1, BES-1): 8 µg/mL; MIC ([3]; strain SMA UFR135, genotype TEM-1, KPC-2): 32 µg/mL; MIC ([3]; strain SMA UFR136, genotype TEM-1, SHV-12, KPC-2): >256 µg/mL; MIC ([3]; strain SMA UFR137, genotype SME-1): 0.5 µg/mL; MIC ([3]; strain SMA UFR138, genotype SME-1): <=0.25 μg/mL; MIC ([3]; strain SMA UFR139, genotype SME-2): <=0.25 μg/mL; MIC ([3]; strain SMA UFR140, genotype IMP-1): >128 µg/mL; MIC ATB in combination ([3]; strain SMA UFR140, with AF2 @ 8 μg/mL): >128 µg/mL; MIC ATB in combination ([3]; strain SMA UFR140, with AF3 @ 8 μg/mL): >128 µg/mL; MIC ([3]; strain SMA UFR141, genotype OXA-48): 1 µg/mL; MIC ([3]; strain SMA UFR142, genotype OXA-48): 0.5 µg/mL; MIC ([3]; strain SMA UFR143, genotype CTX-M-15, OXA-1, OXA-48): 64 µg/mL; MIC ([3]; strain SMA UFR238, genotype OXA-48): 0.5 µg/mL; MIC ATB in combination ([3]; strain SMA UFR238, with AF2 @ 8 μg/mL): 0.5 µg/mL; MIC ATB in combination ([3]; strain SMA UFR238, with AF3 @ 8 μg/mL): <=0.25 μg/mL; MIC ([3]; strain SMA UFR239, genotype ESAC): 32 µg/mL; MIC ATB in combination ([4]; MMO 200321, AF2 @ 8 μg/mL): <=0.25 μg/mL; MIC ATB in combination ([4]; MMO 200321, AF3 @ 8 μg/mL): <=0.25 μg/mL; MIC ATB in combination ([4]; MMO UFR144, AF2 @ 8 μg/mL): <=0.25 μg/mL; MIC ATB in combination ([4]; MMO UFR144, AF3 @ 8 μg/mL): <=0.25 μg/mL; MIC ATB in combination ([4]; MMO UFR240, AF2 @ 8 μg/mL): <=0.25 μg/mL; MIC ATB in combination ([4]; MMO UFR240, AF3 @ 8 μg/mL): <=0.25 μg/mL; MIC ATB in combination ([4]; MMO UFR241, AF2 @ 8 μg/mL): <=0.25 μg/mL; MIC ATB in combination ([4]; MMO UFR241, AF3 @ 8 μg/mL): <=0.25 μg/mL; MIC ATB in combination ([4]; MMO UFR242, AF2 @ 8 μg/mL): <=0.25 μg/mL; MIC ATB in combination ([4]; MMO UFR242, AF3 @ 8 μg/mL): <=0.25 μg/mL; MIC ATB in combination ([4]; MMO UFR243, AF2 @ 8 μg/mL): <=0.25 μg/mL; MIC ATB in combination ([4]; MMO UFR243, AF3 @ 8 μg/mL): <=0.25 μg/mL; MIC ATB in combination ([4]; MMO UFR244, AF2 @ 8 μg/mL): <=0.25 μg/mL; MIC ATB in combination ([4]; MMO UFR244, AF3 @ 8 μg/mL): <=0.25 μg/mL; MIC ATB in combination ([4]; MMO UFR245, AF2 @ 8 μg/mL): <=0.25 μg/mL; MIC ATB in combination ([4]; MMO UFR245, AF3 @ 8 μg/mL): <=0.25 μg/mL; MIC ATB in combination ([4]; MMO UFR246, AF2 @ 8 μg/mL): <=0.25 μg/mL; MIC ATB in combination ([4]; MMO UFR246, AF3 @ 8 μg/mL): <=0.25 μg/mL; MIC ATB in combination ([4]; MMO UFR247, AF2 @ 8 μg/mL): <=0.25 μg/mL; MIC ATB in combination ([4]; MMO UFR247, AF3 @ 8 μg/mL): <=0.25 μg/mL; MIC ([4]; strain MMO 200321, genotype TEM-1, CTX-M-15, OXA-1): 16 µg/mL; MIC ([4]; strain MMO UFR144, genotype TEM-1, CTX-M-15): 8 µg/mL; MIC ATB in combination ([4]; strain MMO UFR145, with AF2 @ 8 μg/mL): >128 µg/mL; MIC ATB in combination ([4]; strain MMO UFR145, with AF3 @ 8 μg/mL): >128 µg/mL; MIC ([4]; strain MMO UFR240, genotype CTX-M-9): 0.5 µg/mL; MIC ([4]; strain MMO UFR241, genotype TEM-1, CTX-M-15): 8 µg/mL; MIC ([4]; strain MMO UFR242, genotype TEM-52): 32 µg/mL; MIC ([4]; strain MMO UFR243, genotype DHA-1): 1 µg/mL; MIC ([4]; strain MMO UFR244, genotype DHA-1): 0.5 µg/mL; MIC ([4]; strain MMO UFR245, genotype DHA-1): 8 µg/mL; MIC ([4]; strain MMO UFR246, genotype DHA-1): 4 µg/mL; MIC ([4]; strain MMO UFR247, genotype DHA-1): 0.5 µg/mL
